In general, viability refers to a read-out of living cells in per cent, often relative to untreated cells.

These results are taken from publication PMC12040169 (PLOS Biology, 2025).

Each structure is given as a SMILES string.

The nature of this data set: in vitro. To be noted: human, hela cells, % viability.

For the compound `Cc1cc(C)nc(NC(=O)NS(=O)(=O)Nc2ccccc2Cl)n1` [CBK260912], the viability at 28.5 h, 10 µM is 102%.

In the case of `NCCC(O)(P(=O)(O)O)P(=O)(O)O` [CBK260913], the viability at 28.5 h, 10 µM amounted to 97.6%.

As for `O=P(O)(CN1CCOCC1)CN1CCOCC1` [CBK260914], the viability at 28.5 h, 10 µM amounted to 97.6%.

Turning to `Cc1cccc(C)c1NC(=O)c1nccnc1C(=O)O` [CBK260915], the viability at 28.5 h, 10 µM worked out at 97%.

In the case of `O=C(NCc1c(OC(=O)c2cccc([N+](=O)[O-])c2)ccc2ccccc12)c1ccccc1` [CBK260919], the viability at 28.5 h, 10 µM stood at 81.1%.

On to `O=C(NCc1c(O)c(Cl)cc(Cl)c1Cl)c1ccccc1` [CBK260920], for which the viability at 28.5 h, 10 µM was found to be 94.2%.

`NC(=O)N/N=C/c1ccncc1` [CBK260922]: the viability at 28.5 h, 10 µM worked out at 107%.

Turning to `O=C(O)/C=N/NC(=O)c1ccco1` [CBK260923], the viability at 28.5 h, 10 µM turned out to be 89.5%.

As for `Cc1ccc(CCC(=O)NNc2ccccc2)o1` [CBK260924], the viability at 28.5 h, 10 µM was found to be 90.5%.

As for `CO/N=C(/C(=O)O)c1cn2cc(Br)ccc2n1` [CBK260925G], the viability at 28.5 h, 10 µM turned out to be 87.2%.

As to `C[N+](C)(C)c1ccc(C(=O)O)cc1` [CBK260929B], the viability at 28.5 h, 10 µM amounted to 90%.

As to `CCC1=NN(c2ccccc2)C(=O)C(CC(=O)Nc2ccccc2)c2cc(OC)c(OC)cc21` (stereo not drawn) [CBK260938], the viability at 28.5 h, 10 µM was found to be 89%.

Consider `O=C(O)C1Cc2c([nH]c3ccccc23)C(c2cc(Br)ccc2O)N1` (stereo not drawn) [CBK260946], for which the viability at 28.5 h, 10 µM was found to be 88.1%.

Regarding `Cc1sc2ccc(-c3ccccc3)cc2[n+]1CCCS(=O)(=O)[O-]` [CBK260947], the viability at 28.5 h, 10 µM amounted to 90.7%.

As for `CCO/C(C)=C/c1sc2ccc3ccccc3c2[n+]1CCCS(=O)(=O)[O-]` [CBK260948], the viability at 28.5 h, 10 µM was found to be 95.1%.

Regarding `Cc1nc2cc(C(=O)O)ccc2n1CCO` [CBK260949], the viability at 28.5 h, 10 µM amounted to 106%.

As to `Cc1c[n+]2ccsc2n1Cc1ccccc1C#N` [CBK260951B], the viability at 28.5 h, 10 µM stood at 116%.

Take `O=C1/C(=C2/Sc3ccccc3N2CCCS(=O)(=O)O)SC(=S)N1c1ccccc1` [CBK260954G]: the viability at 28.5 h, 10 µM is 94.5%.

As to `O=C(O)CCC(CCC(=O)O)([N+](=O)[O-])[N+](=O)[O-]` [CBK260956], the viability at 28.5 h, 10 µM came out at 93.9%.

As to `O=C(CNC(=O)c1ccccc1)N/N=C/c1ccc(Br)cc1` [CBK260957], the viability at 28.5 h, 10 µM was 103%.

For the compound `CC(C)(c1ccc(Oc2cccc(N)c2)cc1)c1ccc(Oc2cccc(N)c2)cc1` [CBK260958], the viability at 28.5 h, 10 µM was 109%.

In the case of `O=C(O)c1ccc(Oc2ccc([N+](=O)[O-])cc2)cc1C(=O)O` [CBK260961], the viability at 28.5 h, 10 µM is 89%.

`O=C1c2ccccc2C(=O)N1CCCN1CCN(CCCN2C(=O)c3ccccc3C2=O)CC1` [CBK260963]: the viability at 28.5 h, 10 µM turned out to be 91.6%.

For the compound `Cc1ccc(S(=O)(=O)NC(CO)C(=O)O)cc1` (stereo not drawn) [CBK260965], the viability at 28.5 h, 10 µM is 96%.

Take `Cc1ccc(S(=O)(=O)NC(Cc2c[nH]c3ccccc23)C(=O)O)cc1` (stereo not drawn) [CBK260966]: the viability at 28.5 h, 10 µM worked out at 103%.

For `CN(C)Cc1cc(CN(C)C)c(O)c(C(C)(C)C)n1` [CBK260969], the viability at 28.5 h, 10 µM was 90.6%.

`COc1ccc(C(=O)Nc2cccc3nsnc23)cc1OC` [CBK260973]: the viability at 28.5 h, 10 µM came to 92.2%.

`O=C(O)c1c[nH]cn1` [CBK260978G]: the viability at 28.5 h, 10 µM was 97%.

For `CCOC(=O)/C(=N/O)C(=O)c1c[nH]c2ccccc12` [CBK260979], the viability at 28.5 h, 10 µM worked out at 96%.

`Cc1nonc1NC(=O)Nc1ccncc1` [CBK260982]: the viability at 28.5 h, 10 µM came out at 94.7%.

On to `CC(=O)Nc1ccc(NC(=O)CCCC(=O)O)cc1` [CBK260984], for which the viability at 28.5 h, 10 µM turned out to be 104%.

Take `N=C(N)SCP(=O)(c1ccccc1)c1ccccc1` [CBK260990]: the viability at 28.5 h, 10 µM was 99.3%.

On to `O=C(O)CCC(CCC(=O)O)C(=O)O` [CBK260994], for which the viability at 28.5 h, 10 µM was 95.1%.

For `C[Si]1(C)O[Si](C)(C)O[Si](C)(CC[Si](C)(C)c2ccccc2)O[Si](C)(C)O1` [CBK260998], the viability at 28.5 h, 10 µM was found to be 97%.

On to `c1cncc(C(N2CCOCC2)N2CCOCC2)c1` [CBK260999], for which the viability at 28.5 h, 10 µM is 94.5%.

As to `COc1ccc(C(N2CCOCC2)N2CCOCC2)cc1` [CBK261002], the viability at 28.5 h, 10 µM was 102%.

On to `CNC(=O)N(O)C1N(NC(=O)Nc2ccccc2)C(=S)SC1(C)C` (stereo not drawn) [CBK261005], for which the viability at 28.5 h, 10 µM was found to be 94.9%.

Regarding `O=[N+]([O-])c1ccc(NCCNCCO)c(Cl)c1` [CBK261006], the viability at 28.5 h, 10 µM is 97.5%.

For the compound `CNc1c(C)cc([N+](C)(C)C)cc1C` [CBK261007I], the viability at 28.5 h, 10 µM was determined as 95.3%.

Take `O=C(O)C1CC1(C(=O)O)C(=O)O` (stereo not drawn) [CBK261009]: the viability at 28.5 h, 10 µM was found to be 103%.

For `Cc1cc([N+](=O)[O-])cc[n+]1[O-]` [CBK261014], the viability at 28.5 h, 10 µM turned out to be 102%.

Take `c1ccc(Nc2[nH]nnc2-c2ccccc2)cc1` [CBK261015]: the viability at 28.5 h, 10 µM was 116%.

Consider `CC(=O)Nc1cc2nc3ccccc3nc2cc1NC(C)=O` [CBK261018], for which the viability at 28.5 h, 10 µM came out at 92.6%.

Turning to `O=C(NC(N1CCCCC1)C(Cl)(Cl)Cl)NC(N1CCCCC1)C(Cl)(Cl)Cl` (stereo not drawn) [CBK261020], the viability at 28.5 h, 10 µM amounted to 98.2%.

Turning to `O=S(=O)(CCSc1ccc(Cl)cc1)Oc1ccccc1` [CBK261021], the viability at 28.5 h, 10 µM stood at 102%.

With `CC(C)(C)C(=O)NC(N(Cc1ccccc1)Cc1ccccc1)C(Cl)(Cl)Cl` (stereo not drawn) [CBK261023], the viability at 28.5 h, 10 µM came out at 97.7%.

Turning to `CCCC(=O)NC(NC(=S)Nc1ccccc1Cl)C(Cl)(Cl)Cl` (stereo not drawn) [CBK261026], the viability at 28.5 h, 10 µM is 106%.

With `COc1ccc(C(=O)NC(NC(=S)Nc2cccc3cccnc23)C(Cl)(Cl)Cl)cc1` (stereo not drawn) [CBK261028], the viability at 28.5 h, 10 µM turned out to be 94.6%.

As for `CC(=O)Cc1ccccc1OCC(=O)O` [CBK261031], the viability at 28.5 h, 10 µM was determined as 90.9%.

Regarding `NC(=O)COc1ccccc1OCC(N)=O` [CBK261032], the viability at 28.5 h, 10 µM came out at 87.5%.

In the case of `CC(C)(C)c1cc(C(=O)CSc2nnc(Nc3ccccc3)n2-c2ccccc2)cc(C(C)(C)C)c1O` [CBK261033], the viability at 28.5 h, 10 µM came out at 94.1%.

With `c1ccc2sc(CCSCCc3nc4ccccc4s3)nc2c1` [CBK261036], the viability at 28.5 h, 10 µM is 104%.

Take `CN=C(S)N=C(Nc1ccccc1)c1ccccc1` [CBK261037]: the viability at 28.5 h, 10 µM was found to be 89.1%.

For `FC(F)(F)C1=NC(C(F)(F)F)=NP(N2CCOCC2)(N2CCOCC2)=N1` [CBK261042], the viability at 28.5 h, 10 µM is 94.3%.

As for `COc1ccccc1NC(=O)C(C)N1C(=O)c2ccccc2C1=O` (stereo not drawn) [CBK261043], the viability at 28.5 h, 10 µM came to 92%.

In the case of `Cc1ccc(C(=O)NNC(=O)c2cccnc2)cc1` [CBK261045], the viability at 28.5 h, 10 µM came to 94%.

`Cc1ccccc1C(=O)NC(NC(=S)Nc1sc2c(c1C(N)=O)CCCC2)C(Cl)(Cl)Cl` (stereo not drawn) [CBK261047]: the viability at 28.5 h, 10 µM turned out to be 97.9%.

`NC(=O)c1c(NC(=S)NC(NC(=O)c2ccccc2)C(Cl)(Cl)Cl)sc2c1CCCC2` (stereo not drawn) [CBK261048]: the viability at 28.5 h, 10 µM stood at 90.6%.

With `CC(C)CC(=O)NC(N=C(S)Nc1sc2c(c1C#N)CCCC2)C(Cl)(Cl)Cl` (stereo not drawn) [CBK261049], the viability at 28.5 h, 10 µM was 85.2%.

With `CC(C)C(=O)NC(NC(=S)Nc1cccc2cccnc12)C(Cl)(Cl)Cl` (stereo not drawn) [CBK261051], the viability at 28.5 h, 10 µM is 90%.
